Test results reported in patent US12319648B2, “Fluorinated phenylacetic acid derivatives in a weed control method” (SYNGENTA CROP PROTECTION AG, priority 2019, dated 2025).

Legend:
Format in all cases: in vivo
[1] = tested on: Amaranthus retoflexus (AMARE); test: Pre-emergence herbicidal glasshouse test; conditions: pre-emergence, 250 g/ha, 13 days after application
Description: (§1) Seeds of a variety of test species are shown in standard soil in pots Amaranthus retoflexus (AMARE), Ipomoea hederacea (IPOHE), Solanum nigrum (SOLNI), Lolium perenne (LOLPE). Echinochloa crus-galli (ECHCG), Setaria faberi (SETFA)). After cultivation for one day (pre-emergence) or after 8 days cultivation (post-emergence) under controlled conditions in a glasshouse (at 24/16° C., day/night; 14 hours light; 65% humidity), the plants are sprayed with an aqueous spray solution derived from the formulation of the technical active ingredient in acetone/water (50:50) solution containing 0.5% Tween 20 (polyoxyethylene sorbitan monolaurate, CAS RN 9005-64-5). Compounds are applied at 250 g/ha unless otherwise stated. The test plants are then grown in a glasshouse under controlled conditions in a glasshouse (at 24/16° C., day/night; 14 hours light; 65% humidity) and watered twice daily. After 13 days for pre and post-emergence, the test is evaluated for the percentage damage caused to the plant. The biological activities are shown in the following table on a five-point scale (5=81-100%; 4=61-80%; 3=41-60%; 2=21-40%; 1=0-20%).
(§2) Using the experimental conditions outlined above, a further test is conducted to compare the herbicidal properties of the difluro containing compound (1.014) with a representative compound (C1) referred to in GB901553. The compounds are applied at 1000 g/ha and 500 g/ha. The test is evaluated for the percentage damage caused to the plant (% phytotoxicity).

[2] = tested on: Ipomoea hederacea (IPOHE); test: Pre-emergence herbicidal glasshouse test; conditions: pre-emergence, 250 g/ha, 13 days after application
Description: as §1, §2

Lolium perenne (LOLPE) [3] = test: Pre-emergence herbicidal glasshouse test; conditions: pre-emergence, 250 g/ha, 13 days after application
Description: as §1, §2

[4] = tested on: Echinochloa crus-galli (ECHCG); test: Pre-emergence herbicidal glasshouse test; conditions: pre-emergence, 250 g/ha, 13 days after application
Description: as §1, §2

Setaria faberi (SETFA) [5] = test: Pre-emergence herbicidal glasshouse test; conditions: pre-emergence, 250 g/ha, 13 days after application
Description: as §1, §2

Solanum nigrum (SOLNI) [6] = test: Pre-emergence herbicidal glasshouse test; conditions: pre-emergence, 250 g/ha, 13 days after application
Description: as §1, §2

[7] = tested on: Amaranthus retoflexus (AMARE); test: Post-emergence herbicidal glasshouse test; conditions: post-emergence, 250 g/ha, 13 days after application
Description: as §1, §2

[8] = tested on: Ipomoea hederacea (IPOHE); test: Post-emergence herbicidal glasshouse test; conditions: post-emergence, 250 g/ha, 13 days after application
Description: as §1, §2

Lolium perenne (LOLPE) [9] = test: Post-emergence herbicidal glasshouse test; conditions: post-emergence, 250 g/ha, 13 days after application
Description: as §1, §2

[10] = tested on: Echinochloa crus-galli (ECHCG); test: Post-emergence herbicidal glasshouse test; conditions: post-emergence, 250 g/ha, 13 days after application
Description: as §1, §2

Setaria faberi (SETFA) [11] = test: Post-emergence herbicidal glasshouse test; conditions: post-emergence, 250 g/ha, 13 days after application
Description: as §1, §2

Solanum nigrum (SOLNI) [12] = test: Post-emergence herbicidal glasshouse test; conditions: post-emergence, 250 g/ha, 13 days after application
Description: as §1, §2

Row | SMILES | percentage damage caused to the plant, five-point scale, AMARE [1] | percentage damage caused to the plant, five-point scale, IPOHE [2] | percentage damage caused to the plant, five-point scale, LOLPE (Lolium perenne (LOLPE) [3]) | percentage damage caused to the plant, five-point scale, ECHCG [4] | percentage damage caused to the plant, five-point scale, SETFA (Setaria faberi (SETFA) [5]) | percentage damage caused to the plant, five-point scale, SOLNI (Solanum nigrum (SOLNI) [6]) | percentage damage caused to the plant, five-point scale, AMARE [7] | percentage damage caused to the plant, five-point scale, IPOHE [8] | percentage damage caused to the plant, five-point scale, LOLPE (Lolium perenne (LOLPE) [9]) | percentage damage caused to the plant, five-point scale, ECHCG [10] | percentage damage caused to the plant, five-point scale, SETFA (Setaria faberi (SETFA) [11]) | percentage damage caused to the plant, five-point scale, SOLNI (Solanum nigrum (SOLNI) [12])
1 | O=C(O)C(F)(F)c1cccc(F)c1Br [Compound 1.032] | 4 (4=61-80%) | 4 (4=61-80%) | 1 (1=0-20%) | 1 (1=0-20%) | 1 (1=0-20%) | 4 (4=61-80%) | 4 (4=61-80%) | 4 (4=61-80%) | 1 (1=0-20%) | 1 (1=0-20%) | 1 (1=0-20%) | 4 (4=61-80%)
2 | O=C(O)C(F)(F)c1cccc(F)c1F [Compound 1.031] | 1 (1=0-20%) | 3 (3=41-60%) | 1 (1=0-20%) | 1 (1=0-20%) | 1 (1=0-20%) | 1 (1=0-20%) | 3 (3=41-60%) | 3 (3=41-60%) | 1 (1=0-20%) | 1 (1=0-20%) | 1 (1=0-20%) | 3 (3=41-60%)
3 | O=C([O-])C(F)(F)c1cccc(Cl)c1Cl.[Na+] [Compound 1.038] |  | 5 (5=81-100%) | 2 (2=21-40%) | 1 (1=0-20%) | 3 (3=41-60%) |  | 5 (5=81-100%) | 4 (4=61-80%) | 1 (1=0-20%) | 2 (2=21-40%) | 4 (4=61-80%) | 4 (4=61-80%)
4 | O=C(O)C(F)(F)c1cccc(Cl)c1F [Compound 1.029] | 5 (5=81-100%) | 3 (3=41-60%) | 2 (2=21-40%) | 1 (1=0-20%) | 2 (2=21-40%) | 5 (5=81-100%) | 5 (5=81-100%) | 3 (3=41-60%) | 1 (1=0-20%) | 2 (2=21-40%) | 3 (3=41-60%) | 4 (4=61-80%)
5 | O=C(O)C(F)(F)c1c(Cl)ccc(Cl)c1Cl [Compound 1.001] | 5 (5=81-100%) | 3 (3=41-60%) | 1 (1=0-20%) | 1 (1=0-20%) | 1 (1=0-20%) | 1 (1=0-20%) | 5 (5=81-100%) | 4 (4=61-80%) | 1 (1=0-20%) | 1 (1=0-20%) | 3 (3=41-60%) | 4 (4=61-80%)
6 | O=C(O)C(F)(F)c1ccccc1Cl [Compound 1.011] | 5 (5=81-100%) | 4 (4=61-80%) | 1 (1=0-20%) | 1 (1=0-20%) | 2 (2=21-40%) | 4 (4=61-80%) | 5 (5=81-100%) | 3 (3=41-60%) | 1 (1=0-20%) | 1 (1=0-20%) | 1 (1=0-20%) | 5 (5=81-100%)
7 | O=C(O)C(F)(F)c1cccc(Br)c1Cl [Compound 1.037] | 5 (5=81-100%) | 4 (4=61-80%) | 3 (3=41-60%) | 4 (4=61-80%) | 4 (4=61-80%) | 5 (5=81-100%) | 5 (5=81-100%) | 4 (4=61-80%) | 3 (3=41-60%) | 4 (4=61-80%) | 4 (4=61-80%) | 5 (5=81-100%)
8 | O=C(O)C(F)(F)c1cccc(Br)c1F [Compound 1.033] | 5 (5=81-100%) | 4 (4=61-80%) | 1 (1=0-20%) | 4 (4=61-80%) | 4 (4=61-80%) | 5 (5=81-100%) | 5 (5=81-100%) | 4 (4=61-80%) | 1 (1=0-20%) | 4 (4=61-80%) | 4 (4=61-80%) | 5 (5=81-100%)
9 | O=C(O)C(F)(F)c1cccc(Cl)c1Cl [Compound 1.034] |  | 5 (5=81-100%) | 2 (2=21-40%) | 2 (2=21-40%) | 1 (1=0-20%) |  | 5 (5=81-100%) | 4 (4=61-80%) | 1 (1=0-20%) | 2 (2=21-40%) | 3 (3=41-60%) | 3 (3=41-60%)
